From patent publication US20200325509A1, “Microorganisms and Methods in the Fermentation of Benzylisoquinoline Alkaloids” (Intrexon Corporation, priority 2017, published 2020)

Assays:
THS2 = THS2 (Papaver somniferum, UniProt A0A2U9GGW3); assay: direct in vitro THS assay (kinetic analysis of THS2); details: for inhibition of THS2 activity on (7S)-salutaridinol 7-O-acetate: added to the direct assay
[1] = stability of salutaridinol 7-O-acetate in chloroform and aqueous conditions
[2] = substrate of purified recombinant THS2, direct assay quenched after 30 sec

Chain of THS2 (A0A2U9GGW3 whole entry): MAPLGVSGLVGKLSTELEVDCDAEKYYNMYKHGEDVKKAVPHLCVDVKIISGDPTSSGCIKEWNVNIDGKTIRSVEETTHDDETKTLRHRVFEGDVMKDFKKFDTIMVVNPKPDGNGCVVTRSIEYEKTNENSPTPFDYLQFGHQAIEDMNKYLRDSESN

SMILES: COC1=C[C@]23CCN(C)[C@H](Cc4ccc(OC)c(O)c42)C3=C[C@@H]1OC(C)=O [(7S)-salutaridinol 7-O-acetate]
- pH optimum (THS2; THS2 activity on this substrate, direct assay 30 sec, 40 μM substrate): 8.0
- positive cooperativity (η) (THS2; substrate of purified recombinant THS2, direct assay): 2.3
- KA (THS2; [2]): 20 µM
- Vmax (THS2; [2]): 4.0 nmol min^1 μg^−1
- formation of m/z 330-byproduct ([1]; exposure to aqueous conditions): > 70%
- time of formation of m/z 330-byproduct ([1]; exposure to aqueous conditions): < 2 min
- stability ([1]; in chloroform): relatively stable

SMILES: COC1=C[C@]23CCN(C)[C@H](Cc4ccc(OC)c(O)c42)C3=C[C@@H]1O [(7S)-salutaridinol]
- inhibition of THS2 activity on (7S)-salutaridinol 7-O-acetate (THS2): marginally inhibited
- thebaine production by THS2 directly from the substance (THS2; pH 7.0): did not produce thebaine

SMILES: COC1=C[C@]23CCN(C)[C@H](Cc4ccc(OC)c(O)c42)C3=CC1=O [salutaridine]
- inhibition of THS2 activity on (7S)-salutaridinol 7-O-acetate (THS2): marginally inhibited
